Measured values: US20250296971A1, “GASTRIC INHIBITORY PEPTIDE RECEPTOR LIGANDS” (priority 2021, published 2025)
Like-named read-outs stand apart in the source and are kept apart here. *1 amine or outer side, *2 acyl side, *3 side chain or, on linkers, in order; H or OH if unused. Where a SMILES comes first, the peptide text is derived from it. Bridges are numbered along the chain shown (N, C = ends). [ ]: non-standard residue; d: D form. The star is where a group is joined. X2 = O=C(O)CN1CCN(CC(=O)O)CCN(CC(=O)N[C@@H](CCC(=O)NC[C@H](O)[C@@H](O)[C@H](O)[C@H](O)CO)C(=O)*)CCN(CC(=O)O)CC1; DOTA(Lu) = O=C1CN2CCN3CCN(CC(=O)*)CCN(CC2)CC(=O)[O][Lu]([O]1)[O]C(=O)C3; NH(1-deoxy-D-glucityl) = OC[C@@H](O)[C@@H](O)[C@H](O)[C@@H](O)CN*; DOTA = O=C(O)CN1CCN(CC(=O)O)CCN(CC(=O)*)CCN(CC(=O)O)CC1; Trp(5-Cl) = N[C@@H](Cc1c[nH]c2ccc(Cl)cc12)C(=O)O; Pyridine(2,6-diCH2) = c1cc(C[*:1])nc(C[*:2])c1; 1Nal = N[C@@H](Cc1cccc2ccccc12)C(=O)O; mXylylene = c1cc(C[*:1])cc(C[*:2])c1; Glutaryl = O=C(CCCC(=O)[*:2])[*:1]; X7 = c1cc(CSCCN[*:2])cc(C[*:1])c1; Hyp = O=C(O)[C@@H]1C[C@@H](O)CN1; X1 = O=C(CN1CCC(N[*:1])CC1)[*:2]; Suc = O=C(CCC(=O)[*:2])[*:1]; hLeu = CC(C)CC[C@H](N)C(=O)O; hSer = N[C@@H](CCO)C(=O)O; Api = NC1(C(=O)O)CCNCC1; Thp = NC1(C(=O)O)CCOCC1; Aib = CC(C)(N)C(=O)O

Target: T1, GIPR (CHO-K1-hGIPR cells) (Homo sapiens, UniProt P48546)
T1 construct: host or cells: CHO-K1
T1 sequence (P48546 22-466): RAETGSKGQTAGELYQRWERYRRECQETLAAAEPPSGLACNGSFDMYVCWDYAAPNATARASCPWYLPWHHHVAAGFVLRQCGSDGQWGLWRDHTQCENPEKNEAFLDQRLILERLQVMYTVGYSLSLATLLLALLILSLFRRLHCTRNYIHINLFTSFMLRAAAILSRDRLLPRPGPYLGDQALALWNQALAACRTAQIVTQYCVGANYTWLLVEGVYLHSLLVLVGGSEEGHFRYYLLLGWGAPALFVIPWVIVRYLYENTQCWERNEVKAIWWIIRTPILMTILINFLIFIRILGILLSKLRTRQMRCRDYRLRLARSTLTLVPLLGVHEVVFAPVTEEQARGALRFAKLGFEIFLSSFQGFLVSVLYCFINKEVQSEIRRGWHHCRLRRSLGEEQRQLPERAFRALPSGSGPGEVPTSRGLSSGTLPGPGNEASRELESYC
Experiment: FACS binding assay
Summary of the method: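 Read-out: flow cytometric median fluorescence intensity, APC/Cy5 channel, plotted vs peptide conc.; 4PL fit → EC50/pEC50 or IC50/pIC50. Cells: CHO-K1-hGIPR, Accutase-detached, 500.000/mL in PBS + 1% FCS. Detection: APC-streptavidin 1 μg/mL, 30 min, on ice.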

[1] = competition with 20 nM GIP-057, 4° C., 1 hour, read-out: pIC50 Category (converted)
[2] = competition with 20 nM GIP-057, 4° C. for 1 hour, read-out: pIC50 Category (converted)

| SMILES | IC50 [1] [nM] | IC50 [2] [nM] | further results |
| --- | --- | --- | --- |
| CC[C@H](C)[C@@H]1NC(=O)[C@H](CC(C)C)NC(=O)C2(CCN(C(=O)[C@H](CCC(=O)NC[C@H](O)[C@@H](O)[C@H](O)[C@H](O)CO)NC(=O)CN3CCN(CC(=O)O)CCN(CC(=O)O)CCN(CC(=O)O)CC3)CC2)NC(=O)[C@@H](NC(=O)[C@@H](CC(C)C)NC(=O)[C@H](CCC(=O)O)NC(=O)[C@@H]2C[C@@H](O)CN2C(=O)[C@H](Cc2c[nH]c3ccc(Cl)cc23)NC(=O)[C@H](Cc2c[nH]c3ccccc23)NC(=O)[C@H](CCO)NC(=O)CN2CCC(NC(=O)CCCC(=O)NC[C@H](O)[C@@H](O)[C@H](O)[C@H](O)CO)CC2)CSCc2cccc(n2)CSC[C@@H](C(=O)NC2CCN(CC(=O)N[C@H](CCC(=O)NC[C@H](O)[C@@H](O)[C@H](O)[C@H](O)CO)C(N)=O)CC2)NC1=O [GIP-047, AGLU-Glutar-APAc-Hse-Trp-5Clw-Hyp-Glu-leu-[Cys(2Lut)-Apc(DOTA-glu(AGLU))-Leu-Ile-Cys]-APAc-glu(AGLU)-NH2] ({NH(1-deoxy-D-glucityl)-Glutaryl}-[X1][hSer]W[Trp(5-Cl)][Hyp]E[dL]C[Api](X2)LIC[X1][dE](NH(1-deoxy-D-glucityl))-NH2; linker 8-12 via Pyridine(2,6-diCH2)) | 10 to 79.4 |  |  |
| CC[C@H](C)[C@@H]1NC(=O)[C@H](CC(C)C)NC(=O)C2(CCN(C(=O)CN3CCN(CC(=O)O)CCN(CC(=O)O)CCN(CC(=O)O)CC3)CC2)NC(=O)[C@@H](NC(=O)[C@H](CCC(C)C)NC(=O)[C@H](CCC(=O)O)NC(=O)[C@@H]2CCCN2C(=O)[C@H](Cc2cccc3ccccc23)NC(=O)[C@H](Cc2c[nH]c3ccccc23)NC(=O)[C@H](CC(=O)O)NC(C)=O)CSCc2cccc(c2)CSC[C@@H](C(N)=O)NC1=O [GIP-400, Ac-Asp-Trp-1Ni-Pro-Glu-Hle-[Cys(3MeBn)-Apc(DOTA)-Leu-Ile-Cys]-NH2] (Ac-DW[1Nal]PE[hLeu]C[Api](DOTA)LIC-NH2; linker 7-11 via mXylylene) |  | 100 to 794 |  |
| CC[C@H](C)[C@@H]1NC(=O)[C@H](CC(C)C)NC(=O)C2(CCOCC2)NC(=O)[C@@H](NC(=O)[C@@H](CC(C)C)NC(=O)[C@H](CCC(=O)O)NC(=O)[C@@H]2C[C@@H](O)CN2C(=O)[C@H](Cc2c[nH]c3ccc(Cl)cc23)NC(=O)[C@H](Cc2c[nH]c3ccccc23)NC(=O)CCC(=O)O)CSCc2cccc(n2)CSC[C@@H](C(=O)N[C@@H](CCCCNC(=O)CN2CCN(CC(=O)O)CCN(CC(=O)O)CCN(CC(=O)O)CC2)C(N)=O)NC1=O [GIP-115, HO-Succinyl-Trp-5Clw-Hyp-Glu-leu-[Cys(2Lut)-Thp-Leu-Ile-Cys]-Lys(DOTA)-NH2] (Suc-W[Trp(5-Cl)][Hyp]E[dL]C[Thp]LICK(DOTA)-NH2; linker 6-10 via Pyridine(2,6-diCH2)) | < 10 |  |  |
| CC[C@H](C)[C@@H]1NC(=O)[C@H](CC(C)C)NC(=O)C(C)(C)NC(=O)[C@@H](NC(=O)[C@@H](CC(C)C)NC(=O)[C@H](CCC(=O)O)NC(=O)[C@@H]2CCCN2C(=O)[C@H](Cc2c[nH]c3ccc(Cl)cc23)NC(=O)[C@H](Cc2c[nH]c3ccccc23)NC(=O)[C@H](CC(=O)O)NC(=O)CN2CCC(NC(=O)CN3CCN4CCN5CCN(CC3)CC(=O)[O][Lu]([O]C(=O)C4)[O]C(=O)C5)CC2)CSCc2cccc(c2)CSCCNC1=O [GIP-161, LuDOTA-APAc-Asp-Trp-5Clw-Pro-Glu-leu-[Cys(3MeBn)-Aib-Leu-Ile-AET]] ({DOTA(Lu)}-[X1]DW[Trp(5-Cl)]PE[dL]C[Aib]LI; linker 8-C via X7) |  |  | IC50 (pIC50 Category, competition with 20 nM GIP-057, 4° C., 1 hour): < 10 nM |
| CC[C@H](C)[C@@H]1NC(=O)[C@H](CC(C)C)NC(=O)[C@H](C)NC(=O)[C@@H](NC(=O)[C@H](CC(C)C)NC(=O)[C@H](CCC(=O)O)NC(=O)[C@@H]2CCCN2C(=O)[C@H](Cc2c[nH]c3ccccc23)NC(C)=O)CSCc2cccc(c2)CSC[C@@H](C(N)=O)NC1=O [GIP-325, Ac-Trp-Pro-Glu-Leu-[Cys(3MeBn)-Ala-Leu-Ile-Cys]-NH2] (Ac-WPELCALIC-NH2; linker 5-9 via mXylylene) |  | > 1000 |  |
| CC[C@H](C)[C@@H]1NC(=O)[C@H](CC(C)C)NC(=O)C(C)(C)NC(=O)[C@@H](NC(=O)[C@@H](CC(C)C)NC(=O)[C@H](CCC(=O)O)NC(=O)[C@@H]2CCCN2C(=O)[C@H](Cc2c[nH]c3ccc(Cl)cc23)NC(=O)[C@H](Cc2c[nH]c3ccccc23)NC(=O)[C@H](CC(=O)O)NC(=O)CCC(=O)NCCCOCCOCCOCCCNC(=O)CN2CCN(CC(=O)O)CCN(CC(=O)O)CCN(CC(=O)O)CC2)CNCc2cccc(c2)CSCCNC1=O [GIP-092, DOTA-Ttds-Asp-Trp-5Clw-Pro-Glu-leu-[Dap(3MeBn)-Aib-Leu-Ile-AET]] | < 10 |  |  |
